Earlier results, collected in patent US20170112856A1, “PHARMACEUTICAL COMPOSITION FOR TREATING CANCER IN AN INDIVIDUAL SUBJECT SUFFERING CANCER” (MA SHEN KAI RUEI CO., LTD., priority 2015, published 2017).

Columns and labels:
[1] = system: human HL60 leukemia cells
[2] = system: human colorectal cancer cells (COLO 205)
[3] = system: normal intestinal epithelial cells (FHC cells)
[4] = system: murine macrophages RAW264.7; settings: LPS-induction

Molecule | amount of free radicals of nitric oxide [4] | also measured
C=C(CC[C@@H](C)[C@H]1CC[C@H]2C3=C(C(=O)C[C@]12C)[C@@]1(C)CCC(=O)[C@@H](C)C1CC3=O)C(C)C(=O)O (stereo partly drawn) [Zhankuic acid A, 4 α-methylergost-8,24(28)-dien-3,7,11-trion-26-oic acid] |  | apoptosis [1]: inducing apoptosis
COc1cc(C)c(OC)c2c1OCO2 [SY-1] |  | programmed death of cell ([2]; COLO 205, higher doses): induce programmed death of cell; cell cycle ([2]; COLO 205, lower doses): remain in the G0/G1 phase; impact on normal cells [3]: does not have an impact
4-acetyl-Antroquinonol B [Composition 4-acetyl-AQB] | effectively reducing | 
Cc1cc(O)c2c(c1O)OCO2 [2,3-(methylenedioxy)-6-methyl-benzene-1,4-diol] | effectively reducing | 
COc1cc(C)c(O)c(OC)c1O [2,4-dimethoxy-6-methyl-benzene-1,3-diol] | effectively reducing | 
Antroquinonol B [AQB] | effectively reducing | 
